Test results from US9453014B2, “Cyclic amide derivatives as inhibitors of 11-β-hydroxysteroid dehydrogenase and uses thereof” (CONNEXIOS LIFE SCIENCES PVT. LTD., priority 2011, dated 2016).
pIC50: −log10 of the molar value.

Target: T1, human full length HSD11 β 1 (Homo sapiens, UniProt P28845)
T1 construct: transient expression of human full length HSD11 β 1 expression vector; host or cells: CHO cells (transient transfection)
Assay: In Vitro HSD11β1 Inhibition Assay
Type: cell-based
Conditions: CHO cells transiently expressing human HSD11β1; 200 nM cortisone+500 uM NADPH overnight; cortisone to cortisol by LC/MS-MS; read-out: 11βHSD1 (IC50)
Experimental: In Vitro HSD11β1 Inhibition Assay:
CHO cells were maintained in Dulbecco's modified Eagle's medium/nutrient mixture F-12 containing 5% fetal bovine serum (v/v) and 2 mM glutamine. Cells were cultured at 37° C. with 5% CO2. For transient expression of human full length HSD11 β 1 expression vector (OriGene Technologies), cells were seeded at a density of 2×10^5 cells/well in a 6-well plate. Transfection was done using Turbofectin8 reagent (OriGene Technologies), according to the protocol provided with the reagent. After 24 hours post-transfection, cells were trypsinized and pooled together before they were re-seeding to 96-well plate at a density of 40000 cells/well. 24 hours after re-seeding, cells were incubated with 200 nM cortisone+500 uM NADPH (or along with small molecule inhibitors) overnight. The enzymatic activity or inhibition of enzyme activity was measured by estimating the conversion of cortisone to cortisol by LC/MS-MS method. The IC50 in nM was calculated from an 8 point log scale of concentration versus inhibition.

T1 sequence (P28845 whole entry): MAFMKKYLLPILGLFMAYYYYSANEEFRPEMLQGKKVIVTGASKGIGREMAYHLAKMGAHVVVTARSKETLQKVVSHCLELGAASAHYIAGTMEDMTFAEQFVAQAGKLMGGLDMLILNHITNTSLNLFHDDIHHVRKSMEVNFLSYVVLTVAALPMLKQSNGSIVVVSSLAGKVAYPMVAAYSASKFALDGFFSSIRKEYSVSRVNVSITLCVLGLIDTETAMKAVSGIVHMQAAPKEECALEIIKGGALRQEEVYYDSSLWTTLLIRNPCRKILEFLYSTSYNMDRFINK

SMILES	pIC50
Cn1cc(CCC(=O)N2CCO[C@@H]3CCCC[C@H]32)c2ccccc21 (relative stereo) [Compound 63, 3-(1-methyl-1H-indol-3-yl)-1-[(trans-4a,8a)-octahydro-4H-1,4-benzoxazin-4-yl]propan-1-one]	< 6.60
Cc1cccc2c1c(CCC(=O)N1CCO[C@@H]3CCCC[C@@H]31)cn2C (relative stereo) [Compound 66, 3-(1,4-dimethyl-1H-indol-3-yl)-1-[cis-(4a,8a)-octahydro-4H-1,4-benzoxazin-4-yl]propan-1-one]	> 7.00
O=C(CCc1c[nH]c2ccccc12)N1CCCC2CCCCC21 (single isomer, unassigned) [Compound 52, 3-(1H-indol-3-yl)-1-(octahydroquinolin-1(2H)-yl)propan-1-one]	< 6.60
O=C(CCc1c[nH]c2ccccc12)N1CCCC2CCCCC21 (single isomer, unassigned) [Compound 53, 3-(1H-indol-3-yl)-1-(octahydroquinolin-1(2H)-yl)propan-1-one]	> 7.00
CC12CCCCC1N(C(=O)CCc1c[nH]c3ccccc13)CCC2 (single isomer, unassigned) [Compound 55, 3-(1H-indol-3-yl)-1-(4a-methyloctahydroquinolin-1(2H)-yl)propan-1-one]	> 7.00
CC12CCCCC1N(C(=O)CCc1c[nH]c3ccccc13)CCC2 (single isomer, unassigned) [Compound 56, 3-(1H-indol-3-yl)-1-(4a-methyloctahydroquinolin-1(2H)-yl)propan-1-one]	6.70 to 6.82
Cc1cccc2c1c(CCC(=O)N1CCO[C@@H]3CCCC[C@H]31)cn2C (single isomer, unassigned) [Compound 62, 3-(1,4-dimethyl-1H-indol-3-yl)-1-[(trans-4a,8a)-octahydro-4H-1,4-benzoxazin-4-yl]propan-1-one]	< 6.60
Cc1cccc2c1c(CCC(=O)N1CCO[C@@H]3CCCC[C@H]31)cn2C (single isomer, unassigned) [Compound 65, 3-(1,4-dimethyl-1H-Indol-3-yl)-1-[trans-(4a,8a)-octahydro-4H-1,4-benzoxazin-4-yl]propan-1-one]	< 6.60
CC(CC(=O)N1CCCC2C(C(=O)O)CCCC21)c1c[nH]c2cccc(C3CC3)c12 (single isomer, unassigned) [Compound 195, 1-[3-(4-cyclopropyl-1H-indol-3-yl)butanoyl]decahydroquinoline-5-carboxylic acid]	> 7.00
CC(CC(=O)N1CCCC2C(C(=O)O)CCCC21)c1c[nH]c2cccc(C3CC3)c12 (single isomer, unassigned) [Compound 196, 1-[3-(4-cyclopropyl-1H-indol-3-yl)butanoyl]decahydroquinoline-5-carboxylic acid]	> 7.00
CC(CC(=O)N1CCCC2C(C(=O)O)CCCC21)c1c[nH]c2cccc(C3CC3)c12 (single isomer, unassigned) [Compound 198, 1-[3-(4-cyclopropyl-1H-indol-3-yl)butanoyl]decahydroquinoline-5-carboxylic acid]	6.82 to 7.00
CC(CC(=O)N1CCC[C@H]2[C@H](C(=O)O)CCC[C@@H]21)c1c[nH]c2cccc(C3CC3)c12 (single isomer, unassigned) [Compound 199, 1-[3-(4-cyclopropyl-1H-indol-3-yl)butanoyl]decahydroquinoline-5-carboxylic acid]	> 7.00
CC(CC(=O)N1CCCC2C(C(=O)O)CCCC21)c1c[nH]c2cccc(C3CC3)c12 (single isomer, unassigned) [Compound 200, 1-[3-(4-cyclopropyl-1H-Indol-3-yl)butanoyl]decahydroquinoline-5-carboxylic acid]	> 7.00
CC(CC(=O)N1CCCC2C(C(=O)O)CCCC21)c1cn(C)c2cccc(C3CC3)c12 (single isomer, unassigned) [Compound 212, 1-[3-(4-cyclopropyl-1-methyl-1H-indol-3-yl)butanoyl]decahydroquinoline-5-carboxylic acid]	< 6.60

The remaining lines, values ahead:

pIC50	SMILES
< 6.60	O=C(CCc1nc2ccccc2s1)N1CCO[C@@H]2CCCC[C@H]21 (relative stereo) [Example 79, 3-(1,3-benzothiazol-2-yl)-1-[trans-(4a,8a)-octahydro-4H-1,4-benzoxazin-4-yl]propan-1-one]
< 6.60	CC(CC(=O)N1CCCC2C(C(=O)O)CCCC21)c1cn(C)c2cccc(C3CC3)c12 (single isomer, unassigned) [Compound 213, 1-[3-(4-cyclopropyl-1-methyl-1H-indol-3-yl)butanoyl]decahydroquinoline-5-carboxylic acid]
> 7.00	CC(CC(=O)N1CCCC2C(C(=O)O)CCCC21)c1cn(C)c2cccc(C3CC3)c12 (single isomer, unassigned) [Compound 214, 1-[3-(4-cyclopropyl-1-methyl-1H-indol-3-yl)butanoyl]decahydroquinoline-5-carboxylic acid]
> 7.00	O=C(O)C1CCCC2C1CCCN2C(=O)CC(c1cccs1)c1c[nH]c2cccc(Cl)c12 (single isomer, unassigned) [Compound 218, 1-[3-(4-chloro-1H-indol-3-yl)-3-(thiophen-2-yl)propanoyl]decahydroquinoline-5-carboxylic acid]
< 6.60	O=C(O)C1CCCC2C1CCCN2C(=O)CC(c1cccs1)c1c[nH]c2cccc(Cl)c12 (single isomer, unassigned) [Compound 219, 1-[3-(4-chloro-1H-indol-3-yl)-3-(thiophen-2-yl)propanoyl]decahydroquinoline-5-carboxylic acid]
6.82 to 7.00	CC(CC(=O)N1CCCC2C(C(=O)O)CCCC21)c1c[nH]c2cccc(-c3ccco3)c12 (single isomer, unassigned) [Compound 223, 1-{3-[4-(furan-2-yl)-1H-indol-3-yl]butanoyl}decahydroquinoline-5-carboxylic acid]
> 7.00	CC(CC(=O)N1CCCC2C(C(=O)O)CCCC21)c1c[nH]c2cccc(-c3ccco3)c12 (single isomer, unassigned) [Compound 224, 1-{3-[4-(furan-2-yl)-1H-indol-3-yl]butanoyl}decahydroquinoline-5-carboxylic acid]
> 7.00	O=C(O)C1CCN(C(=O)CC(c2ccc(F)cc2)c2c[nH]c3cccc(F)c23)C2CCCCC12 (single isomer, unassigned) [Compound 225, 1-[3-(4-fluoro-1H-indol-3-yl)-3-(4-fluorophenyl)propanoyl]decahydroquinoline-4-carboxylic acid]
< 6.60	O=C(O)C1CCN(C(=O)CC(c2ccc(F)cc2)c2c[nH]c3cccc(F)c23)C2CCCCC12 (single isomer, unassigned) [Compound 226, 1-[3-(4-fluoro-1H-indol-3-yl)-3-(4-fluorophenyl)propanoyl]decahydroquinoline-4-carboxylic acid]
> 7.00	CC(CC(=O)N1CCCC2C(C(=O)O)CCCC21)c1c[nH]c2cccc(-c3ccc(F)o3)c12 (single isomer, unassigned) [Compound 248, 1-{3-[4-(5-fluorofuran-2-yl)-1H-indol-3-yl]butanoyl}decahydroquinoline-5-carboxylic acid]
6.60 to 6.70	CC(CC(=O)N1CCCC2C(C(=O)O)CCCC21)c1c[nH]c2cccc(-c3ccc(F)o3)c12 (single isomer, unassigned) [Compound 249, 1-{3-[4-(5-fluorofuran-2-yl)-1H-indol-3-yl]butanoyl}decahydroquinoline-5-carboxylic acid]
> 7.00	CC(CC(=O)N1CCCC2C(C(=O)O)CCCC21)c1c[nH]c2cccc(-c3ccc(F)o3)c12 (single isomer, unassigned) [Compound 250, 1-{3-[4-(5-fluorofuran-2-yl)-1H-indol-3-yl]butanoyl}decahydroquinoline-5-carboxylic acid]
> 7.00	CC(CC(=O)N1CCCC2C(C(=O)O)CCCC21)c1c[nH]c2cccc(-c3ccc(F)o3)c12 (single isomer, unassigned) [Compound 251, 1-{3-[4-(5-fluorofuran-2-yl)-1H-indol-3-yl]butanoyl}decahydroquinoline-5-carboxylic acid]
> 7.00	CC(CC(=O)N1CCCC2C(C(=O)O)CCCC21)c1c[nH]c2cccc(-c3ccc(F)cc3)c12 (single isomer, unassigned) [Compound 255, 1-{3-[4-(4-fluorophenyl)-1H-indol-3-yl]butanoyl}decahydroquinoline-5-carboxylic acid]
< 6.60	CC(CC(=O)N1CCCC2C(C(=O)O)CCCC21)c1c[nH]c2cccc(-c3ccc(F)cc3)c12 (single isomer, unassigned) [Compound 256, 1-{3-[4-(4-fluorophenyl)-1H-indol-3-yl]butanoyl}decahydroquinoline-5-carboxylic acid]
< 6.60	CC(C)C(CC(=O)N1CCCC2(C)CCCCC12)c1c[nH]c2cccc(F)c12 (single isomer, unassigned) [Example 115, 3-(4-fluoro-1H-indol-3-yl)-4-methyl-1-(4a-methyloctahydroquinolin-1(2H)-yl)pentan-1-one]
< 6.60	CC(C)C(CC(=O)N1CCCC2(C)CCCCC12)c1c[nH]c2cccc(F)c12 (single isomer, unassigned) [Example 116, 3-(4-fluoro-1H-indol-3-yl)-4-methyl-1-(4a-methyloctahydroquinolin-1(2H)-yl)pentan-1-one]
